Among the data in PubChem BioAssay AID272 (DTP/NCI, 2004) are T/C values, retold here.

Values joined by “and” are separate entries in the source; they are usually repeats but may differ in a detail not shown here. Equal entries are not always repeated. Inconclusive results are not listed.

This experiment deals with Lewis lung carcinoma i.m., BDF1 mice, T/C %. As to the kind of experiment: NCI In Vivo Anticancer Drug Screen. Data for tumor model Lewis Lung Carcinoma (intramuscular) in B6D2F1 (BDF1) mice. The essentials:
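Mice carrying transplantable tumours received test compound. Survival or tumour size was recorded and expressed as the treated-group value (T) divided by the vehicle-treated control-group value (C).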

The mark [1] stands for this setting: endpoint: mean tumor weight, dose: 20.0 mg/kg/injection, schedule: Q01DX011 (ip), vehicle: saline, higher = larger tumour.
Where [2] appears, read: endpoint: mean tumor weight, dose: 40.0 mg/kg/injection, schedule: Q01DX011 (ip), vehicle: saline, higher = larger tumour.
The mark [3] stands for this setting: endpoint: median survival time, dose: 20.0 mg/kg/injection, schedule: Q01DX011 (ip), vehicle: saline, higher = longer survival.
The mark [4] stands for this setting: endpoint: median survival time, dose: 25.0 mg/kg/injection, schedule: Q01DX011 (ip), vehicle: saline, higher = longer survival.
Where [5] appears, read: endpoint: mean tumor weight (est.), dose: 6.25 mg/kg/injection, schedule: Q01DX011 (ip), vehicle: saline with Tween-80, higher = larger tumour.
The mark [6] stands for this setting: endpoint: mean tumor weight (est.), dose: 12.5 mg/kg/injection, schedule: Q01DX011 (ip), vehicle: saline with Tween-80, higher = larger tumour.
Where [7] appears, read: endpoint: median survival time, dose: 6.25 mg/kg/injection, schedule: Q01DX011 (ip), vehicle: saline with Tween-80, higher = longer survival.
Setting [8] is: endpoint: median survival time, dose: 12.5 mg/kg/injection, schedule: Q01DX011 (ip), vehicle: saline with Tween-80, higher = longer survival.

For the molecule `O=c1[nH]c(=O)n(C2CC(O)C(CO)O2)cc1F` (configuration not stated), the T/C reads like this: (endpoint: mean tumor weight, dose: 10.0 mg/kg/injection, schedule: Q01DX009 (ip), vehicle: saline, higher = larger tumour) 59 % of control; (endpoint: mean tumor weight, dose: 10.0 mg/kg/injection, schedule: Q01DX011 (ip), vehicle: other, higher = larger tumour) 83 % of control; (endpoint: mean tumor weight, dose: 20.0 mg/kg/injection, schedule: Q01DX009 (ip), vehicle: saline, higher = larger tumour) 72 % of control; (endpoint: mean tumor weight, dose: 20.0 mg/kg/injection, schedule: Q01DX011 (ip), vehicle: other, higher = larger tumour) 29 % of control; under setting [1], 31 % of control and 42 % of control; (endpoint: mean tumor weight, dose: 25.0 mg/kg/injection, schedule: Q01DX011 (ip), vehicle: saline, higher = larger tumour) 58 % of control. Also, the T/C was 65 % of control (endpoint: mean tumor weight, dose: 40.0 mg/kg/injection, schedule: Q01DX009 (ip), vehicle: saline, higher = larger tumour); 10 % of control and 17 % of control under setting [2]; 18 % of control (endpoint: mean tumor weight, dose: 50.0 mg/kg/injection, schedule: Q01DX011 (ip), vehicle: saline, higher = larger tumour); 16 % of control (endpoint: mean tumor weight, dose: 80.0 mg/kg/injection, schedule: Q01DX009 (ip), vehicle: saline, higher = larger tumour); 4 % of control (endpoint: mean tumor weight, dose: 80.0 mg/kg/injection, schedule: Q01DX011 (ip), vehicle: other, higher = larger tumour); 7 % of control (endpoint: mean tumor weight, dose: 80.0 mg/kg/injection, schedule: Q01DX011 (ip), vehicle: saline, higher = larger tumour). Moreover, the T/C is 3 % of control (endpoint: mean tumor weight, dose: 100.0 mg/kg/injection, schedule: Q01DX011 (ip), vehicle: saline, higher = larger tumour); 98 % of control (endpoint: median survival time, dose: 10.0 mg/kg/injection, schedule: Q01DX011 (ip), vehicle: other, higher = longer survival); 107 % of control and 120 % of control (endpoint: median survival time, dose: 10.0 mg/kg/injection, schedule: Q01DX011 (ip), vehicle: saline, higher = longer survival); 100 % of control (endpoint: median survival time, dose: 19.0 mg/kg/injection, schedule: Q01DX007 (sc), vehicle: saline, higher = longer survival); 108 % of control (endpoint: median survival time, dose: 20.0 mg/kg/injection, schedule: Q01DX011 (ip), vehicle: other, higher = longer survival); 91 % of control and 112 % of control and 123 % of control under setting [3]. The T/C runs as follows: (endpoint: median survival time, dose: 20.0 mg/kg/injection, schedule: Q01DX011 (ip), vehicle: water, higher = longer survival) 105 % of control; under setting [4], 108 % of control; (endpoint: median survival time, dose: 31.0 mg/kg/injection, schedule: Q01DX007 (sc), vehicle: saline, higher = longer survival) 121 % of control; (endpoint: median survival time, dose: 40.0 mg/kg/injection, schedule: Q01DX009 (ip), vehicle: saline, higher = longer survival) 114 % of control and 115 % of control; (endpoint: median survival time, dose: 40.0 mg/kg/injection, schedule: Q01DX011 (ip), vehicle: saline, higher = longer survival) 97 % of control and 100 % of control; (endpoint: median survival time, dose: 40.0 mg/kg/injection, schedule: Q01DX011 (ip), vehicle: water, higher = longer survival) 113 % of control. In addition, the T/C by setting is: (endpoint: median survival time, dose: 50.0 mg/kg/injection, schedule: Q01DX009 (ip), vehicle: saline, higher = longer survival) 101 % of control; (endpoint: median survival time, dose: 80.0 mg/kg/injection, schedule: Q01DX009 (ip), vehicle: saline, higher = longer survival) 124 % of control; (endpoint: median survival time, dose: 80.0 mg/kg/injection, schedule: Q01DX011 (ip), vehicle: saline, higher = longer survival) 153 % of control; (endpoint: median survival time, dose: 80.0 mg/kg/injection, schedule: Q01DX011 (ip), vehicle: water, higher = longer survival) 121 % of control; (endpoint: median survival time, dose: 86.0 mg/kg/injection, schedule: Q01DX007 (sc), vehicle: saline, higher = longer survival) 121 % of control.
As to `Clc1ccc2nc(CI)c(CI)nc2c1`, the T/C (endpoint: mean tumor weight (est.), dose: 3.12 mg/kg/injection, schedule: Q01DX011 (ip), vehicle: saline with Tween-80, higher = larger tumour) is 78 % of control; the T/C under setting [5] was 82 % of control; the T/C under setting [6] was 89 % of control; the T/C (endpoint: median survival time, dose: 3.12 mg/kg/injection, schedule: Q01DX011 (ip), vehicle: saline with Tween-80, higher = longer survival) was 94 % of control; the T/C under setting [7] is 98 % of control; the T/C under setting [8] was 88 % of control.
Turning to `Cn1c(Cl)nc2c(Cl)nc(Cl)nc21`, the T/C was 102 % of control (endpoint: median survival time, dose: 1.0 mg/kg/injection, schedule: Q01DX011 (ip), vehicle: saline with Tween-80, higher = longer survival); 106 % of control (endpoint: median survival time, dose: 2.0 mg/kg/injection, schedule: Q01DX011 (ip), vehicle: saline with Tween-80, higher = longer survival); 102 % of control (endpoint: median survival time, dose: 4.0 mg/kg/injection, schedule: Q01DX011 (ip), vehicle: saline with Tween-80, higher = longer survival); 104 % of control (endpoint: median survival time, dose: 8.0 mg/kg/injection, schedule: Q01DX011 (ip), vehicle: saline with Tween-80, higher = longer survival); 110 % of control (endpoint: median survival time, dose: 16.0 mg/kg/injection, schedule: Q01DX011 (ip), vehicle: saline with Tween-80, higher = longer survival).
On to `O=C1C(=O)c2ccccc2C(O)=C1CC=C(Cl)Cl`, for which the T/C is, setting by setting: under setting [5], 93 % of control; under setting [6], 86 % of control; (endpoint: mean tumor weight (est.), dose: 25.0 mg/kg/injection, schedule: Q01DX011 (ip), vehicle: saline with Tween-80, higher = larger tumour) 61 % of control; (endpoint: mean tumor weight (est.), dose: 50.0 mg/kg/injection, schedule: Q01DX011 (ip), vehicle: saline with Tween-80, higher = larger tumour) 79 % of control; (endpoint: mean tumor weight, dose: 3.75 mg/kg/injection, schedule: Q01DX011 (oral), vehicle: saline, higher = larger tumour) 40 % of control; (endpoint: mean tumor weight, dose: 7.5 mg/kg/injection, schedule: Q01DX011 (ip), vehicle: saline, higher = larger tumour) 54 % of control. Moreover, the T/C (endpoint: mean tumor weight, dose: 7.5 mg/kg/injection, schedule: Q01DX011 (oral), vehicle: saline, higher = larger tumour) is 41 % of control; the T/C (endpoint: mean tumor weight, dose: 10.0 mg/kg/injection, schedule: Q01DX011 (ip), vehicle: saline, higher = larger tumour) is 102 % of control; the T/C (endpoint: mean tumor weight, dose: 12.5 mg/kg/injection, schedule: Q01DX011 (ip), vehicle: other, higher = larger tumour) was 71 % of control; the T/C (endpoint: mean tumor weight, dose: 15.0 mg/kg/injection, schedule: Q01DX011 (ip), vehicle: saline, higher = larger tumour) was 43 % of control; the T/C under setting [1] was 91 % of control; the T/C (endpoint: mean tumor weight, dose: 25.0 mg/kg/injection, schedule: Q01DX011 (ip), vehicle: other, higher = larger tumour) is 88 % of control. The T/C runs as follows: (endpoint: mean tumor weight, dose: 30.0 mg/kg/injection, schedule: Q01DX011 (ip), vehicle: saline, higher = larger tumour) 30 % of control; under setting [2], 82 % of control; (endpoint: mean tumor weight, dose: 50.0 mg/kg/injection, schedule: Q01DX011 (ip), vehicle: other, higher = larger tumour) 55 % of control; (endpoint: median survival time, dose: 3.75 mg/kg/injection, schedule: Q01DX011 (oral), vehicle: saline, higher = longer survival) 100 % of control; under setting [7], 89 % of control; (endpoint: median survival time, dose: 7.5 mg/kg/injection, schedule: Q01DX011 (ip), vehicle: saline, higher = longer survival) 111 % of control. In addition, the T/C by setting is: (endpoint: median survival time, dose: 7.5 mg/kg/injection, schedule: Q01DX011 (oral), vehicle: saline, higher = longer survival) 101 % of control; under setting [8], 93 % of control; (endpoint: median survival time, dose: 15.0 mg/kg/injection, schedule: Q01DX011 (ip), vehicle: saline, higher = longer survival) 113 % of control; under setting [3], 87 % of control; (endpoint: median survival time, dose: 25.0 mg/kg/injection, schedule: Q01DX011 (ip), vehicle: saline with Tween-80, higher = longer survival) 89 % of control; (endpoint: median survival time, dose: 30.0 mg/kg/injection, schedule: Q01DX011 (ip), vehicle: saline, higher = longer survival) 108 % of control.
Regarding `CNc1ccc(O)cc1`, the T/C reads like this: (endpoint: mean tumor weight (est.), dose: 6.25 mg/kg/injection, schedule: Q01DX011 (ip), vehicle: saline, higher = larger tumour) 97 % of control; (endpoint: mean tumor weight (est.), dose: 12.5 mg/kg/injection, schedule: Q01DX011 (ip), vehicle: saline, higher = larger tumour) 97 % of control; (endpoint: mean tumor weight (est.), dose: 25.0 mg/kg/injection, schedule: Q01DX011 (ip), vehicle: saline, higher = larger tumour) 89 % of control; (endpoint: mean tumor weight (est.), dose: 50.0 mg/kg/injection, schedule: Q01DX011 (ip), vehicle: saline, higher = larger tumour) 82 % of control; (endpoint: median survival time, dose: 6.25 mg/kg/injection, schedule: Q01DX011 (ip), vehicle: saline, higher = longer survival) 101 % of control; (endpoint: median survival time, dose: 12.5 mg/kg/injection, schedule: Q01DX011 (ip), vehicle: saline, higher = longer survival) 105 % of control. Moreover, the T/C reads like this: under setting [4], 100 % of control; (endpoint: median survival time, dose: 50.0 mg/kg/injection, schedule: Q01DX011 (ip), vehicle: saline, higher = longer survival) 101 % of control.
For `Cc1nn(CCO)c(C)c1N=[N+]([O-])c1c(C)nn(CCO)c1C`, the T/C by setting is: (endpoint: median survival time, dose: 15.0 mg/kg/injection, schedule: Q02DX011 (ip), vehicle: saline with Tween-80, higher = longer survival) 105 % of control; (endpoint: median survival time, dose: 30.0 mg/kg/injection, schedule: Q02DX011 (ip), vehicle: saline with Tween-80, higher = longer survival) 86 % of control; (endpoint: median survival time, dose: 60.0 mg/kg/injection, schedule: Q02DX011 (ip), vehicle: saline with Tween-80, higher = longer survival) 97 % of control.
Turning to `Oc1ccc(I)c2cccnc12`, the T/C (endpoint: mean tumor weight (est.), dose: 100.0 mg/kg/injection, schedule: Q01DX011 (ip), vehicle: saline, higher = larger tumour) is 109 % of control and the T/C (endpoint: median survival time, dose: 100.0 mg/kg/injection, schedule: Q01DX011 (ip), vehicle: saline, higher = longer survival) was 95 % of control.
